Assay results taken from patent publication US6479472B1, “Methods of using therapeutic phospholipid derivatives” (Asta Medica Aktiengesellschaft, priority 1993, dated 2002).
Counter-ions that a name gives are not always drawn.

Tests used:
[1] = test system: DMBA-induced mammary carcinomas; experiment: DMBA-induced mammary carcinoma model, oral treatment, tumor weight by palpation (Experiment 1); assay type: in vivo, female Sprague-Dawley rats; details: for efficacy of standard cytostatics: DMBA-induced mammary carcinomas in test rats
From the text: The first tumor appeared approximately one month after feeding the subject rats with DMBA. Tumor weights were estimated on the basis of tumor volume. This was accomplished by palpating tumors and comparing the volumes of the palpated tumors with the volumes of prefabricated plasticine models in the manner taught by Druckrey, et al., “Experimentelle Beiträge zum Dosis-Problem in der Krebs-Chemotherapie und zur Wirkungsweise von Endoxan, Dtsch. Med. Wschr., 88:651 (1963). Each of the relevant plasticine models was then weighed and converted to a tumor weight by means of a factor reflecting the relationship between the specific weight of each tumor tissue and its corresponding plasticine model. […] A statistical evaluation of the resulting data indicated a correlation coefficient of 0.98. Test rats having a total tumor weight of approximately 1 g were randomly allocated amongst various dosage and control groups, each group having a total of 6-7 rats. In this way, the inventors were able to ensure an approximately equal distribution amongst the experimental groups of tumors having different latencies, total tumor weight and numbers of tumor nodes. […] The control group was given tap water in accordance with the same schedule. […] During the observation period, tumor weights were determined for each of the test rats at regular intervals. The test rats were all housed under specific pathogen free (SPF) conditions with unrestricted water supply (acidified to pH 3) and standard pellet lab chow (Altromin 1324). […] J. Oncol., 2:161 (1993).

[2] = test system: human KB tumors (ATCC CCL 17 KB, human epidermoid larynx tumors); experiment: KB tumor model, subcutaneous implants in nude mice, oral treatment (Experiment 2); assay type: in vivo, female nu/nu mice (strain NMRI); details: for efficacy of standard cytostatics: KB implanted tumors in test mice
From the text: (§1) The inventors used female, nu/nu mice (strain NMRI) aged 9-10 weeks and weighing 21-29 g (Breeder: Bomholtgard Breeding and Research Center, DK-8680 Ry) for testing. Tumor fragments consisting of the human KB tumors (ATCC; Rockville, Md.; cell line ATCC CCL 17 KB, human epidermoid larynx tumors), and having an average diameter of 2 mm, were implanted subcutaneously into the right side of the test mice.
The test mice were randomly assigned to various treatment and control groups.
Tumor weights were estimated by first palpating the tumors and then comparing the volumes of the palpated tumors with the volumes of prefabricated plasticine models according to Druckrey, et al., “Experimentelle Beiträge zum Dosis-Problem in der Krebs-Chemotherapie und zur Wirkungsweise von Endoxan, Dtsch. Med. Wschr., 88:651 (1963). After determining the weight of the models, the inventors converted each of these values to a tumor weight by determining the relationship between the specific weight of each tumor tissue and its corresponding plasticine model. To ensure the accuracy of this method, the inventors simultaneously estimated the weights of 99 individual tumors by both palpation and direct weighing of extirpated tumors.
Once the KB tumor implants attained a weight of approximately 0.2 g, the inventors commenced therapy with the compounds of Examples 1, 8, 17, 21, 22, 24 and 25 of the subject application. Each compound was dissolved in 0.9% NaCl and administered per os (stomach tube) in accordance with the regimen schedules detailed in Graphs 10-17 hereinbelow. The control mice were treated with the vehicle alone.
During the observation period, tumor weights were determined for each of the test mice at regular intervals.
The test mice were all housed under specific pathogen free (SPF) conditions with unrestricted water supply (acidified to pH 3) and standard pellet lab chow (Altromin 1324).

[3] = test system: DMBA-induced mammary carcinomas / KB implanted tumors; experiment: Summary statement on Experiments 1 and 2 (DMBA and KB tumor models, model not told per compound); assay type: in vivo, rats / mice; details: for tumor remission: model and regimen not given; for GII (growth inhibition index): specified dosage regimens, model not given, GII>100% = tumor regression
Experimental: The inventors induced mammary carcinomas in female Sprague-Dawley rats (Mollegaard Breeding Center, DK-4236 Ejby) aged 50 days by administering a single dose of 20 mg 7,12-dimethylbenz(a)anthracene (DMBA) dissolved in 1 ml of olive oil to each rat by gavage. The first tumor appeared approximately one month after feeding the subject rats with DMBA.
as §1
Results from Experiments 1 and 2 were calculated and expressed in accordance with the growth inhibition index (GII) described in Voegeli, et al., “Selective cytostatic activity of Hexadecylphosphocholine against tumor cells in vitro leads to the establishment of an in vivo screening system for phospholipid analogues,” Int. J. Oncol., 2:161 (1993). The GII values from Experiments 1 and 2 are detailed in Table 1 below.

[4] = 4 × 100 mg/kg per os, treatment day 0, 3, 7, 10, >100 = tumor regression
[5] = 2 × 316 mg/kg per os, treatment day 0, 7

How did the “efficacy of standard cytostatics” value [1] turn out when `COc1cccc2c1C(=O)c1c(O)c3c(c(O)c1C2=O)C[C@@](O)(C(=O)CO)C[C@@H]3O[C@H]1C[C@H](N)[C@H](O)[C@H](C)O1` [Adriamycin, reference compound] was run?
Its value is “relatively ineffective”.

What about the “efficacy of standard cytostatics” value [2] of the same molecule?
The value was “relatively ineffective”.

`N.N.[Cl][Pt][Cl]` [Cisplatin, reference compound] was tested. Which “efficacy of standard cytostatics” value [1] did it give?
The value was “relatively ineffective”.

And the “efficacy of standard cytostatics” value [2]?
Its value is “relatively ineffective”.

`O=P1(N(CCCl)CCCl)NCCCO1` (centres unmarked) [Cyclophosphamide, reference compound] was tested. Which “efficacy of standard cytostatics” value [1] did it give?
Its value is “relatively ineffective”.

And the “efficacy of standard cytostatics” value [2]?
Its value is “relatively ineffective”.

For `CCCCCCCCCCCCCCCCCCOP(=O)([O-])OC1CC[N+](C)(C)CC1` [Example 1, 4-(((Octadecyloxy)hydroxyphosphenyl)oxy)-1,1-dimethylpiperidinium hydroxide internal salt], which “DMBA (G.I.I. %)” value [1, 4] is on record?
Its value is 119%.

And the “DMBA (G.I.I. %)” value ([1]; 14 × 31.6 mg/kg per os, treatment day 0-13)?
Its value is 108%.

And the “DMBA (G.I.I. %)” value ([1]; 28 × 68.1 mg/kg per os, 'large tumors', treatment day 0-27)?
The value was 137%.

And the “KB (G.I.I. %)” value ([2]; 1 × 511 mg/kg per os, treatment day 0)?
The value was 103%.

What about the tumor remission [3] of the same molecule?
The tumor remission was “complete disappearance of tumors”.

For `CCCCCCCCCCCCCCCCCCOP(=O)([O-])OCC1CCCC[N+]1(C)C` (centres unmarked) [Example 8, Octadecyl (1,1-dimethylpiperidinio-2-yl)methyl phosphate], which “DMBA (G.I.I. %)” value [1, 4] is on record?
The value was 125%.

What about the “KB (G.I.I. %)” value [2, 5] of the same molecule?
Its value is 100%.

And the “GII (growth inhibition index)” value [3]?
The value was 100%.

With `CCCCCCCCCCCCCCCCCCOP(=O)([O-])OCC1CCC[N+](C)(C)C1` (centres unmarked) [Example 10, Octadecyl (1,1-dimethylpiperidinio-3-yl)methyl phosphate] as the molecule, how does the “KB (G.I.I. %)” value [2, 5] read?
The value was 99%.

And the “GII (growth inhibition index)” value [3]?
Its value is 100%.

Which “DMBA (G.I.I. %)” value ([1]; 1 × 511 mg/kg per os, 'large tumors', treatment day 0) does the source give for `CCCCCCCCCCCCCCCCCCOP(=O)([O-])OC1CCC[N+](C)(C)CC1` (centres unmarked) [Example 13, Octadecyl 1,1-dimethylhexahydroazepinio-4-yl phosphate] here?
The value was 145%.

And the “DMBA (G.I.I. %)” value ([1]; 14 × 46.4 mg/kg per os, treatment day 0-13)?
The value was 129%.

With `CCCCCCCCCCCCCCCCCCOP(=O)([O-])OC1CC[N+](C)(C)C1` (centres unmarked) [Example 17, Octadecyl 1,1-dimethylpyrrolidinio-3-yl phosphate] as the molecule, how does the “KB (G.I.I. %)” value ([2]; 2 × 100 mg/kg per os, treatment day 0, 7) read?
The value was 90%.

`CCCCCCCCCCCCCCCCOP(=O)([O-])OCC1CCC[N+]1(C)C` (centres unmarked) [Example 20, Hexadecyl (1,1-dimethylpyrrolidinio-2-yl)methyl phosphate] was tested. Which “DMBA (G.I.I. %)” value [1, 4] did it give?
Its value is 99%.

And the “GII (growth inhibition index)” value [3]?
Its value is 100%.

With `CCCCCCCCCCCCCCCCCCOP(=O)([O-])OCC1CCC[N+]1(C)C` (centres unmarked) [Example 21, Octadecyl (1,1-dimethylpyrrolidinio-2-yl)methyl phosphate] as the molecule, how does the “DMBA (G.I.I. %)” value [1, 4] read?
Its value is 116%.

And the “KB (G.I.I. %)” value [2, 5]?
The value was 106%.

What about the tumor remission [3] of the same molecule?
The tumor remission was “complete disappearance of tumors”.

For `CCCCCCCCCCCCCCCCOP(=O)([O-])OC1C[N+]2(C)CCC1CC2` (centres unmarked) [Example 22, Hexadecyl 1-methylquinuclidinio-3-yl phosphate], which “DMBA (G.I.I. %)” value [1, 4] is on record?
The value was 105%.

And the “KB (G.I.I. %)” value ([2]; 2 × 383 mg/kg per os, treatment day 0, 7)?
Its value is 102%.

`CCCCCCCCCCCCCCCCOP(=O)([O-])OC1CC2CCC(C1)[N+]2(C)C` (centres unmarked) [Example 24, Hexadecyl 1,1-dimethyltropanio-4-yl phosphate] was tested. Which “KB (G.I.I. %)” value ([2]; 2 × 215 mg/kg per os, treatment day 0, 7) did it give?
Its value is 108%.

With `CCCCCCCCCCCCCCCCCCOP(=O)([O-])OC1CC2CCC(C1)[N+]2(C)C` (centres unmarked) [Example 25, Octadecyl 1,1-dimethyltropanio-4-yl phosphate] as the molecule, how does the “KB (G.I.I. %)” value [2, 5] read?
Its value is 110%.

And the tumor remission [3]?
The tumor remission was “complete disappearance of tumors”.
